According to BindingDB's records for doi:10.7270/Q2Q52NH6 (Catholic University of Daegu, 2017):

Legend:
[1] = biological target: Acetylcholinesterase (Homo sapiens, UniProt P22303); assay: Acetylcholinesterase Inhibitory Assay; details: pH 8; 25 °C
Experimental: Briefly, 140 μL of sodium phosphate buffer (pH 8.0), 20 μL of each tested compound with different concentrations (4, 20, and 100 μM) and 20 μL enzyme solution were mixed and incubated at room temperature for 15 min. The reactions were initiated by the addition of 10 μL of 0.01 M 5,5'-dithiobis(2-nitrobenzoic acid) (DTNB) and 10 μL of 0.075 ATCI. […] The reaction was independently experimented for three times and recorded in 96-well microplates using a microplate reader (VersaMax).

[2] = biological target: T1, Tyrosine-protein phosphatase non-receptor type 1 (Homo sapiens, UniProt P18031); assay: PTP1B Inhibitory Assay; details: pH 6
T1 sequence (P18031 whole entry): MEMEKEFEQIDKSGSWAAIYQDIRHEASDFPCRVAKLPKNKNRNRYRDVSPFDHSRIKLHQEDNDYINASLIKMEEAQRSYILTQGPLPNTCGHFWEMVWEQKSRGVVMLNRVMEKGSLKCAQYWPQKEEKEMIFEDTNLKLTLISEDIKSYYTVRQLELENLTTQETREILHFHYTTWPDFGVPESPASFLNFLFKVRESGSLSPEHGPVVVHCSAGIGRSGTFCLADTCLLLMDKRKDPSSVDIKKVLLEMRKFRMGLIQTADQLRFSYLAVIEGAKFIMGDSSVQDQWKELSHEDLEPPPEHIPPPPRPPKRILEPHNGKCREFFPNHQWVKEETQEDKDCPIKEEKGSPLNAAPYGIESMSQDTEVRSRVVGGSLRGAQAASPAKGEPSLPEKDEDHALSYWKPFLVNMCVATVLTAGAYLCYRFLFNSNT
Experimental: PTP1B activity was measured by adding 2mM p-NPP and PTP1B in a 50 mM citrate buffer (pH 6.0, 0.1 M NaCl, 1 mMEDTA, and 1 mM dithiothreitol), with or without tested compounds. The plate was pre-incubated at 37 °C for 10 min, and then 50 μL of p-NPP in buffer was added. After incubating at 37 °C for 30 min, the reaction was then terminated with 1 N NaOH.

[3] = biological target: T1, Tyrosine-protein phosphatase non-receptor type 1; assay: Kinetic Analysis
Experimental: The reaction mixtures contained in various different concentrations of p-NPP as a PTP1B substrate in the presence or absence of the active compound. The kinetic analysis was evaluated for Michaelis-Menten plot, Lineweaver-Burk plot, and Dixon plot. The Michaelis constant (Km), maximum velocity (Vmax), and the inhibition constants (Ki) were determined by using Sigma Plot software (13.0 software, SPCC Inc., Chicago, IL, USA).

Acetylcholinesterase, sequence (P22303 whole entry): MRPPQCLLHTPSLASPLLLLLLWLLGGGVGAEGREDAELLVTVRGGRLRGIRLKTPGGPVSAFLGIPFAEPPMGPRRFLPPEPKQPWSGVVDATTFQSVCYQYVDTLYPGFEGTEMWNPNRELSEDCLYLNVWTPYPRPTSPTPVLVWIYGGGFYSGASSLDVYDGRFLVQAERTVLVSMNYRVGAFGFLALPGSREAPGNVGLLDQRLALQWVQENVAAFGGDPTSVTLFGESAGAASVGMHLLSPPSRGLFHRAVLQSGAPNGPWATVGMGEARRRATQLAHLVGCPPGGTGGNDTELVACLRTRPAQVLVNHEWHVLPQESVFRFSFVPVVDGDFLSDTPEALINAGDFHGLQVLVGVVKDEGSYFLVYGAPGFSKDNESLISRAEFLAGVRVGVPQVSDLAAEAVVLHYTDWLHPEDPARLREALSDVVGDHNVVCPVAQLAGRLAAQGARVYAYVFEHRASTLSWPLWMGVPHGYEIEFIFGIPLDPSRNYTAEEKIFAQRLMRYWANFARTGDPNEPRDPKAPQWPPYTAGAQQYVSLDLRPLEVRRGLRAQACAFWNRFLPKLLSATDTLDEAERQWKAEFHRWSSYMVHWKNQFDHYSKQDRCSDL

SMILES	IC50 [1] [µM]	IC50 [2] [µM]	Ki [3] [µM]
O=C(O[C@H]1OC(CO)[C@@H](O)[C@@H]2OC(=O)c3cc(O)c(O)c(c3O)-c3c(O)c(O)cc(c3O)C(=O)OC12)c1cc(O)c(O)c(O)c1 (some centres not stated) [Agritannin (1)]	60.2	17	
O=c1cc(-c2ccc(O)c(O[C@@H]3O[C@H](CO)[C@@H](O)[C@H](O)[C@H]3O)c2)oc2cc(O)cc(O)c12 [Luteolin 3'-O-β-D-glucoside (17)]	74.6	100	
O=c1cc(-c2ccc(O)cc2)oc2cc(O)cc(O)c12 [Naringenin, 18]	64.3	100	
O=c1c(O)c(-c2ccc(O)c(O[C@@H]3O[C@H](CO)[C@@H](O)[C@H](O)[C@H]3O)c2)oc2cc(O)cc(O)c12 [Quercetin 3'-O-β-D-glucoside (12)]	89.2	100	
O=C(O)[C@H]1O[C@@H](Oc2cc(O)c3c(=O)cc(-c4ccc(O)cc4)oc3c2)[C@H](O)[C@@H](O)[C@@H]1O [apigenin-7-O-betaD-glucuronic acid]	63	7.14	2.6
COC(=O)[C@H]1O[C@@H](Oc2cc(O)c3c(=O)cc(-c4ccc(O)cc4)oc3c2)C(O[C@@H]2OC(CO)[C@@H](O)C(O)[C@@H]2O)[C@H]1O (some centres not stated) [Agriflavone (2)]	63.4	100	
O=c1c(O)c(-c2ccc(O)c(O)c2)oc2cc(O)cc(O)c12 [2-(3,4-dihydroxyphenyl)-3,5,7-trihydroxy-chromone;hydrate]	72.8		
O=c1cc(-c2ccc(O)cc2)oc2cc(O[C@@H]3O[C@H](CO)[C@@H](O)[C@H](O)[C@H]3O)cc(O)c12 [NSC-407303]	100	100	
O=C(O)[C@H]1O[C@@H](Oc2cc(O)c3c(=O)cc(-c4ccc(O)c(O)c4)oc3c2)[C@H](O)[C@@H](O)[C@@H]1O [Luteolin 7-O-β-D-glucuronide (14)]	88.1	38.1	
O=c1c(O)c(-c2ccc(O)cc2)oc2cc(O[C@@H]3O[C@H](CO)[C@@H](O)[C@H](O)[C@H]3O)cc(O)c12 [Kaempferol 7-O-β-D-glucoside (4)]	63.9	100	
O=c1c(O[C@@H]2O[C@H](CO)[C@@H](O)[C@H](O)[C@H]2O)c(-c2ccc(O)c(O)c2)oc2cc(O)cc(O)c12 [2-(3,4-dihydroxyphenyl)-5,7-dihydroxy-3-[(2S,3R,4S,5S,6R)-3,4,5-trihydroxy-6-(hydroxymethyl)oxan-2-yl]oxychromen-4-one]	84.8	100	
O=C(OCOc1cc(O)c2c(=O)cc(-c3ccc(O)c(O)c3)oc2c1)[C@H]1O[C@@H](O)[C@H](O)[C@@H](O)[C@@H]1O [Luteolin 7-O-β-D-glucuronide methyl ester (15)]	65.9	49.1	
O=C(O)[C@H]1O[C@@H](Oc2cc(O)c3c(=O)c(O)c(-c4ccc(O)cc4)oc3c2)[C@H](O)[C@@H](O)[C@@H]1O [Kaempferol 7-O-β-D-glucuronide (5)]	64	48.3	
O=c1c(O[C@@H]2O[C@H](CO)[C@@H](O)[C@H](O)[C@H]2O)c(-c2ccc(O)cc2)oc2cc(O)cc(O)c12 [Kaempferol 3-O-β-D-glucoside (6)]	89.6	60.7	
O=C(OCCCCOc1cc(O)c2c(=O)cc(-c3ccc(O)c(O)c3)oc2c1)[C@H]1O[C@@H](O)[C@H](O)[C@@H](O)[C@@H]1O [Luteolin 7-O-β-D-glucuronide butyl ester (16)]	76.9	100	
O=c1oc2c(O)c(O)cc3c(=O)oc4c(O)c(O)cc1c4c23 [Elagic Acid]	100	7.73	2.8
O=c1cc(-c2ccc(O)c(O)c2)oc2cc(O[C@@H]3O[C@H](CO)[C@@H](O)[C@H](O)[C@H]3O)cc(O)c12	74.7	71.6	
COc1cc(C2Oc3c(OC)cc(CCCO)cc3C2CO)ccc1O[C@@H]1OC(CO)[C@@H](O)C(O)[C@@H]1O (stereo partly drawn) [dihydrodehydrodiconifeyl alcohol 9'-O-β-D-glucose (19)]	92.8	100	
